# According to patent US9492493B2, “Softgel of NLKJ for treating prostate diseases” (priority 2003, dated 2016):
# Tests used:
# [1] = system: Human prostate cancer (PC-3M); test: Inhibition of NLKJ softgels in combination with Lupron on the growth of human prostate cancer in animal models (Experiment Example 2); format: in vivo; details: sc × 1, 21th day after inoculation
# Excerpt: Inhibition of NLKJ Softgels in Combination with Lupron on the Growth of Human Prostate Cancer in Animal Models […] for injection), Batch No. 011209; Lupron (Takeda Chemical Industries, Ltd., Osaka, Japan 541), Batch No. 47978 AP. […] Grafting Tumor: Human prostate cancer (PC-3M), subcultured by Pharmacological Department, Shanghai Institute of Pharmaceutical Industry. […] The weights of tumors were compared among the groups.
# [2] = Body weight of tumor-bearing nude mice (Experiment Example 1); format: in vivo, BALB/C nude mice; details: 100 mg/kg, ip × 3 (d 1, 5, 9)
# Excerpt: (§1) The treatment started from the second day after inoculation. […] The weights of tumors were compared among the groups. The result was judged based on the formula: […]
# [3] = system: Human prostate cancer (PC-3M); test: Inhibition of NLKJ softgels on the growth of human prostate cancer in an animal model (Experiment Example 1); format: in vivo; details: 100 mg/kg, ip × 3 (d 1, 5, 9); 21th day after inoculation
# Experimental: Inhibition of NLKJ Softgels on the Growth of Human Prostate Cancer in an Animal Model
# NLKJ softgels (NLKJ for injection), Batch No. 20010412;
# Kanglaite Injection (Product of Zhejiang Kanglaite Pharmaceutical Co. LTD, containing NLKJ 10 g/100 ml), Batch No. 0011281-1.
# Grafting Tumor: Human prostate cancer (PC-3M), subcultured by Pharmacological Department, Shanghai Institute of Pharmaceutical Industry.
# 1) Control Group (Normal saline);
# 2) NLKJ softgel (5 ml/kg, p.o.×10 d);
# 3) NLKJ softgel (10 ml/kg, p.o.×10 d);
# 4) Kanglaite Injection (25 ml/kg, i.v.×10 d);
# 5) Cyclophamide (CTX) (100 mg/kg, ip.×3 (d1, d5, d9)).
# as §1
# IR: Inhibition Rate of Tumor; Xcon: Average weight of tumors of the control group; Xtreat: Average weight of tumors of the treatment group.
Structure (SMILES),Inhibition Rate(%) ([1]; 0.75 mg/kg),Tumor Weight(g) (x ± SD) ([1]; 0.75 mg/kg),Inhibition Rate(%) ([1]; 1.50 mg/kg),Tumor Weight(g) (x ± SD) ([1]; 1.50 mg/kg),Body weight (g) Beg ([2]; beginning),Body weight (g) End ([2]; end),Inhibition Rate(%) [3],Tumor Weight(g) (x ± SD) [3]
"CCNC(=O)[C@@H]1CCCN1C(=O)[C@H](CCCNC(=N)N)NC(=O)[C@H](CC(C)C)NC(=O)[C@@H](CC(C)C)NC(=O)[C@H](Cc1ccc(O)cc1)NC(=O)[C@H](CO)NC(=O)[C@H](Cc1c[nH]c2ccccc12)NC(=O)[C@H](Cc1c[nH]cn1)NC(=O)[C@@H]1CCC(=O)N1 [Lupron, leuprolide acetate]",37.08%,0.93 ± 0.23 g,48.31%,0.77 ± 0.14 g,,,,
"O=P1(N(CCCl)CCCl)NCCCO1 (centres unmarked) [CTX, Cyclophamide]",,,,,17.0 g,17.8 g,92.47%,0.12 ± 0.04 g
